From patent US5028622A, “Administration of amino acids as treatment for neurodegenerative disorders” (Ajinomoto Company, Inc., priority 1989, dated 1991)
Entries after “also recorded” stand apart in the source; their conditions may differ. Like-named read-outs stand apart in the source and are kept apart here. Each block holds one compound with its values, some of them ahead of it.

Tests used:
ALS = conditions: literature (Patten and Klein 1988); cited from earlier work
clinical = conditions: human, in vivo
Excerpt: FIG. 4. Results of the branched-chain amino acid oral test dose. […] Blood samples were drawn at the times indicated and processed as previously described(5). Data points represent mean values from 9 patients ±SEM. * Denotes p<0.001 and p<005. Symbols refer comparisons to 0 time values according to the student's t-test.
(§1) Baseline blood chemistries and complete blood counts (CBC were obtained. To assure bioavailability of the BCAA, an oral test dose of the above-described mixture or placebo was given after overnight fasting at baseline. Blood samples were drawn at 0, 60 and 120 minutes after dosing for multi-chemistries, CBSs and serum ammonia and amino acid levels. In addition, a random blood sample was obtained for the above studies at three month intervals with no attention paid to time of oral dosing. Plasma amino acid levels were assayed as previously described. [A. Platakis and J. Caroscio, "Abnormal Glutamate Metabolism in Amyotrophic Lateral Sclerosis, " Ann Neurol, 1987, 22:575-579. The contents of this article are herein incorporated by reference]

[1] = system: glutamate dehydrogenase (GDH); conditions: literature (Yielding and Tomkins 1961); cited from earlier work
[2] = Random blood samples during the one-year trial: plasma amino acid levels; format: in vivo, human; conditions: amino acid-treated ALS patients
Procedure: as §1

[3] = in vivo; cited from earlier work
[4] = biological target: T1, glutamate dehydrogenase (GDH) (Homo sapiens, UniProt P00367); test: In vitro leucine activation of membrane bound GDH in post mortem brain tissue; format: biochemical; conditions: for activity at 250 µM: leucine 0.25 mM; for activity at 500 µM: leucine 0.50 mM; for activity at 1000 µM: leucine 1.0 mM; for activity at 5000 µM: leucine 5.0 mM; for activity at 10000 µM: leucine 10 mM
T1 construct: GDH present in post mortem brain tissue; from tissue; host or cells: human post mortem brain: cerebellum (control and multisystem atrophy patient 1), frontal cortex (multisystem atrophy patient 2)
Excerpt: (Table 4) Tissue preparation and GDH determinations were done according to methods previously reported. [A. D. Colon, A. Plaitakis, S. Berl, and D. D. Clark. "The purification and characterization of soluble and particulate Glutamate Dehydrogenase in Rat Brain," Neurochemistry, 1986, 46:1811-1819. The contents of this publication are herein incorporated by reference] […] FIG. 4.

[5] = Control Patient Cerebellum, read-out: Percent Baseline GDH Activity
[6] = Multisystem Atrophy Multineuron Disease Patient 1 Cerebellum, read-out: Percent Baseline GDH Activity
[7] = Multisystem Atrophy Multineuron Disease Patient 2 Frontal Cortex, read-out: Percent Baseline GDH Activity

T1 sequence (P00367 54-558): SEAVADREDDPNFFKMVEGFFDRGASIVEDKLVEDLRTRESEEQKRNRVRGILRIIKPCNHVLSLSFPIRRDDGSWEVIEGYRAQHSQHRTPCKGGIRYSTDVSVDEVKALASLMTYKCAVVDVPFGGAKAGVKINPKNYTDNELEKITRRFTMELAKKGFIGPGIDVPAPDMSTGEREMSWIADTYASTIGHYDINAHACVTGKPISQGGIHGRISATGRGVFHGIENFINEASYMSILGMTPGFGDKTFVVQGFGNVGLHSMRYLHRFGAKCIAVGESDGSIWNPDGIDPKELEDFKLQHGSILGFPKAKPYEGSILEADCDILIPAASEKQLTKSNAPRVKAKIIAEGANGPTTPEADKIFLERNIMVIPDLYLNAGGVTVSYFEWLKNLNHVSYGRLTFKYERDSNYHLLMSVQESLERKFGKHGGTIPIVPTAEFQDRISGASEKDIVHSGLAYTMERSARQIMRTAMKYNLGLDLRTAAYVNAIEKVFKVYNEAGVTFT

increase in plasma level following oral dosing (clinical; 60 min): 393%
increase in plasma level following oral dosing (clinical; 120 min): 183%
plasma level higher than that of placebo-treated patients [2]: 93%
Compound: CC[C@H](C)[C@H](N)C(=O)O [L-isoleucine]
status of ALS patients treated with it as placebo substituted for L-threonine (ALS): revert to previous status
activation of glutamate dehydrogenase in vitro [1]: allosterically activate; also recorded: can be activated

activity at 250 µM [4, 5]: 117%
activity at 500 µM [4, 5]: 135%
activity at 1000 µM [4, 5]: 143%
activity at 2500 µM ([4]; Control Patient Cerebellum, leucine 2.5 mM, read-out: Percent Baseline GDH Activity): 155%
activity at 5000 µM [4, 5]: 155%
activity at 10000 µM [4, 5]: 160%
activity at 250 µM [4, 6]: 117%
activity at 500 µM [4, 6]: 153%
activity at 1000 µM [4, 6]: 186%
activity at 5000 µM [4, 6]: 176%
activity at 10000 µM [4, 6]: 176%
activity at 150 µM ([4]; Multisystem Atrophy Multineuron Disease Patient 2 Frontal Cortex, leucine 0.15 mM, read-out: Percent Baseline GDH Activity): 122%
activity at 250 µM [4, 7]: 128%
activity at 500 µM [4, 7]: 141%
lowest concentration effective in producing increases in GDH activity ([4]; post mortem brain tissue, effect concentration dependent): 0.15 mM
increase in plasma level following oral dosing (clinical; 60 min): 300%
increase in plasma level following oral dosing (clinical; 120 min): 192%
concentration at 1 h (clinical; po): ~450 µM
concentration at 2 h (clinical; po): ~300 µM
plasma level higher than that of placebo-treated patients [2]: 112%
Compound: CC(C)C[C@H](N)C(=O)O [L-leucine]
status of ALS patients treated with it as placebo substituted for L-threonine (ALS): revert to previous status
effect on plasma and CSF levels of the other two BCAAs [3]: severely depress
activation of glutamate dehydrogenase in vitro [1]: allosterically activate; also recorded: can be activated

increase in plasma level following oral dosing (clinical; 60 min): 95%
increase in plasma level following oral dosing (clinical; 120 min): 53%
plasma level higher than that of placebo-treated patients [2]: 61%
Compound: CC(C)[C@H](N)C(=O)O [L-valine]
activation of glutamate dehydrogenase in vitro [1]: allosterically activate
